Reference: the NIST ThermoML archive (doi:10.1021/je049721u)

Experiment: mn = molality of the nth substance listed, in mol/kg
Settings: 101.3 kPa, Liquid; for speed of sound: Pulse-echo method

[Co+2].[O-][Cl+3]([O-])([O-])[O-].[O-][Cl+3]([O-])([O-])[O-] [cobalt(II) perchlorate] + CN(C)C=O
Settings	mass density, 283.15 K [kg/m3]	mass density, 293.15 K [kg/m3]	mass density, 298.15 K [kg/m3]	mass density, 303.15 K [kg/m3]	mass density, 313.15 K [kg/m3]	mass density, 323.15 K [kg/m3]	mass density, 333.15 K [kg/m3]	speed of sound, 298.15 K [m/s]
m1 = 0.02921	964.275	954.785	950.026	945.273	935.722	926.127	916.489	1459.6
m1 = 0.03591	965.673	956.19	951.432	946.682	937.135	927.546	917.907	–
m1 = 0.05081	968.79	959.315	954.565	949.82	940.29	930.711	921.09	1461.4
m1 = 0.05902	970.508	961.035	956.29	951.55	942.021	932.457	922.843	1462.1
m1 = 0.08863	976.733	967.283	962.549	957.809	948.308	938.77	929.181	1464.2
m1 = 0.1167	982.692	973.255	968.53	963.801	954.319	944.808	935.256	1466.5
m1 = 0.1455	988.838	979.414	974.697	969.98	960.52	951.034	941.509	1468.5
m1 = 0.1735	994.845	985.454	980.747	976.035	966.596	957.13	947.626	1471
m1 = 0.2007	1000.8	991.403	986.7	981.997	972.578	963.135	953.661	1472.8
m1 = 0.2305	1007.33	997.94	993.248	988.552	979.153	969.73	960.286	1475.4
m1 = 0.2574	1013.28	1003.91	999.223	994.536	985.152	975.753	966.326	1477.5
m1 = 0.284	1019.22	1009.86	1005.18	1000.5	991.143	981.766	972.371	1479.7

[Cu+2].[O-][Cl+3]([O-])([O-])[O-].[O-][Cl+3]([O-])([O-])[O-] [copper perchlorate] + CN(C)C=O
Settings	mass density, 283.15 K [kg/m3]	mass density, 293.15 K [kg/m3]	mass density, 298.15 K [kg/m3]	mass density, 303.15 K [kg/m3]	mass density, 313.15 K [kg/m3]	mass density, 323.15 K [kg/m3]	mass density, 333.15 K [kg/m3]	speed of sound, 298.15 K [m/s]
m1 = 0.0362	965.762	956.275	951.52	946.762	937.212	927.62	917.988	1460
m1 = 0.04897	968.496	959.009	954.258	949.505	939.972	930.338	920.756	–
m1 = 0.0604	970.938	961.462	956.715	951.971	942.44	932.866	923.242	1461.7
m1 = 0.07815	974.714	965.248	960.507	955.758	946.236	936.666	927.06	1463.2
m1 = 0.106	980.752	971.295	966.549	961.812	952.315	942.78	933.198	1465.3
m1 = 0.139	987.892	978.445	973.718	968.984	959.5	949.979	940.416	1467.8
m1 = 0.1737	995.495	986.058	981.338	976.613	967.148	957.653	948.12	1470.3
m1 = 0.2084	1003.16	993.739	989.024	984.309	974.859	965.385	955.869	1473.2
m1 = 0.2431	1010.94	1001.53	996.825	992.116	982.686	973.233	963.75	1475.7
m1 = 0.2746	1018.01	1008.7	1003.95	999.2	989.83	980.454	970.858	1478.3
m1 = 0.3065	1025.38	1015.99	1011.3	1006.6	997.202	987.786	978.345	1480.8
m1 = 0.3377	1032.62	1023.24	1018.54	1013.85	1004.46	995.056	985.638	1483.8

[Mn+2].[O-][Cl+3]([O-])([O-])[O-].[O-][Cl+3]([O-])([O-])[O-] [manganese (II) perchlorate] + CN(C)C=O
Settings	mass density, 283.15 K [kg/m3]	mass density, 293.15 K [kg/m3]	mass density, 298.15 K [kg/m3]	mass density, 303.15 K [kg/m3]	mass density, 313.15 K [kg/m3]	mass density, 323.15 K [kg/m3]	mass density, 333.15 K [kg/m3]	speed of sound, 298.15 K [m/s]
m1 = 0.04109	966.326	956.852	952.107	947.355	937.821	928.242	918.616	1460.8
m1 = 0.05823	969.773	960.312	955.574	950.83	941.313	931.759	922.147	–
m1 = 0.08396	974.96	965.52	960.793	956.059	946.568	937.04	927.465	1464.6
m1 = 0.1024	978.695	969.265	964.546	959.822	950.346	940.834	931.273	–
m1 = 0.1233	982.926	973.513	968.799	964.082	954.629	945.142	935.612	1468.2
m1 = 0.1616	990.785	981.396	976.698	971.997	962.575	953.124	943.633	1471.4
m1 = 0.2007	998.895	989.531	984.846	980.162	970.768	961.357	951.918	1475
m1 = 0.2395	1007.03	997.69	993.019	988.351	978.996	969.623	960.225	1478.3
m1 = 0.2793	1015.47	1006.16	1001.5	996.842	987.519	978.179	968.812	1481.9
m1 = 0.3166	1023.51	1014.22	1009.58	1004.94	995.645	986.342	977.019	1485.6
m1 = 0.3529	1031.38	1022.11	1017.48	1012.85	1003.59	994.313	985.025	1488.9
m1 = 0.3885	1039.21	1029.96	1025.35	1020.73	1011.5	1002.27	993.029	1492.5

[Ni+2].[O-][Cl+3]([O-])([O-])[O-].[O-][Cl+3]([O-])([O-])[O-] [nickel perchlorate] + CN(C)C=O
Settings	mass density, 283.15 K [kg/m3]	mass density, 293.15 K [kg/m3]	mass density, 298.15 K [kg/m3]	mass density, 303.15 K [kg/m3]	mass density, 313.15 K [kg/m3]	mass density, 323.15 K [kg/m3]	mass density, 333.15 K [kg/m3]	speed of sound, 298.15 K [m/s]
m1 = 0.027	–	–	–	–	–	–	–	1459.6
m1 = 0.02709	963.872	954.383	949.635	944.864	935.312	925.725	916.07	–
m1 = 0.0405	966.705	957.208	952.461	947.7	938.159	928.568	918.935	1460.7
m1 = 0.054	969.549	960.073	955.329	950.578	941.045	931.471	921.848	1461.7
m1 = 0.0681	972.55	963.083	958.342	953.59	944.072	934.511	924.9	1462.9
m1 = 0.08156	975.396	965.94	961.2	956.46	946.947	937.4	927.809	1463.9
m1 = 0.1073	980.845	971.397	966.666	961.935	952.463	942.934	933.366	1466
m1 = 0.1332	986.418	976.985	972.262	967.533	958.059	948.552	939.005	1467.8
m1 = 0.1592	992.026	982.603	977.888	973.17	963.711	954.224	944.695	1470
m1 = 0.1864	997.967	988.557	983.849	979.136	969.697	960.23	950.732	1471.8
m1 = 0.2118	1003.54	994.141	989.44	984.736	975.313	965.882	956.405	1473.6
m1 = 0.2613	1014.55	1005.16	1000.47	995.784	986.394	976.988	967.56	1477.5
